We go through nine compounds from US20250074891A1 (Anaxis Pharma Pty Ltd., priority 2021, published 2025).

As usually defined, the Kd is the constant that tells how readily two partners part at equilibrium. Low readings indicate a tighter complex, high ones a looser complex. In general, IC50 refers to the point on the concentration scale where inhibition reaches its midpoint. In general, DC50 refers to the concentration at which degradation of the target reaches its halfway point.

The structures appear in SMILES notation.

The target in experiment [1] is MLKL (full length) (Homo sapiens (Human), UniProt Q8NB16). Nature of the experiment: KINOMEscan binding assay, MLKL (full length). The settings on record: Table 36. Here is the method:
Kinase assays. For most assays, kinase-tagged T7 phage strains were grown in parallel in 24-well blocks in an E. coli host derived from the BL21 strain. E. coli were grown to log-phase and infected with T7 phage from a frozen stock (multiplicity of infection=0.4) and incubated with shaking at 32° C. until lysis (90-150 minutes).
The Hill Slope was set to −1.

Experiment [2] deals with U937 human histiocytic leukemia cell line. Nature of the experiment: Cellular assay: inhibition of TSQ induced necroptosis (CellTitre-Glo). The settings on record: Homo sapiens, U-937; U937 cells, TSQ cocktail, 48 hours, Table 38; read-out: Inhibition of TSQ-induced necroptosis (IC50 cell-based assay). The method, boiled down: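 U937 cells (20,000/well) pre-dosed with compound (10-point, 1:3 from 36 μM, 0.3% DMSO), then TSQ (hTNF-Fc 100 ng/ml, Smac mimetic 500 nM, Q-VD-OPh 10 μM) for 48 h at 37 °C. Viability by CellTiter-Glo luminescence, normalised to DMSO (100%) and DMSO+TSQ (0%); IC50 from 4-parameter fit.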

The test system of experiment [3] is U937 cells. Kind of experiment: Counter screen: cell viability without TSQ cocktail (off-target effect). The settings on record: Homo sapiens, U-937, Table 38, read-out: Off-target effect (IC50 cell-based assay). Set-up: species or system human. Here is the method: Counter screen: In parallel, all compounds were tested for their ability to affect cell viability. The same U937 cells were treated with compound in DMSO without the TSQ cocktail. This counter screen enabled evaluation of off-target effects. In this case, cell viability was measured by CelltiterGlo.

Experiment [4] deals with endogenous MLKL in U937 (Homo sapiens (Human), UniProt Q8NB16). Kind of experiment: Degradation assay: degradation of endogenous MLKL in human cells (Western blot). The settings on record: 24 h incubation, read-out: Degradation of endogenous MLKL in U937 (DC50 cell-based assay in μM). Here is the method:
DEGRADATION ASSAY: Screening Compounds Procedure to Evaluate the Activity of Compounds in Degrading Endogenous MLKL in Human Cell
The human monocyte cell line (U937) was seeded on the day of the experiment in a 24-well plate at a cell density of 5*10^5 cells per well in a volume of 0.5 mL per well.
The compound was diluted in DMSO with a starting concentration of 10 mM and titrated stepwise with a dilution of 1:5. 0.5 μL of the compound dilution was added to the appropriate well to achieve a final concentration of 10; 2; 0.4; 0.08 and 0.016 μM. A DMSO only well was included as control.
The cells were incubated for 24 h in the presence of the compound at 37° C. and 10% CO2.
After the 24 h incubation period, the medium was removed and cells washed with 0.5 mL PBS. The cells were then lysed directly in 60 μL of 1×SDS gel loading buffer.
The cell lysate was heat-denatured at […] for 10 min. 10 μL of lysate per well were run on 18-well 4-15% Criterion TGX stain free gels (BIO-RAD). The proteins were then transferred onto nitrocellulose membrane with a wet transfer protocol in the Criterion Blotter (BIO-RAD).
Membranes were blocked with 5% skim milk in TBST. Primary antibody against MLKL (clone 3H1, MABC604 Merck) was used at 1:2000 dilution in TBST with 1% BSA and left shaking over night at 4° C. After washes with TBST, the membranes were incubated with goat anti-rat IgG HRP-conjugated antibody (Southern Biotech) in 1% skim milk TBST at 1:10000 dilution for 1 h at room temperature. After TBST washes the bands were imaged on the ChemiDoc MP Imaging Systm (BIO-RAD) with Immobilion Western Chemiluminescent HRP Substrate Forte (Millipore). The loading control GAPDH was probed for with rabbit anti-GAPDH (CST 14C10) at 1:2000 dilution in 1% BSA TBST over night at 4° C. TBST washes were followed by incubation with goat anti-rabbit IgG HRP-conjugated antibody (Southern Biotech) in 1% skim milk TBST at 1:10000 dilution for 1 h at room temperature followed by TBST washes. The signal was detected as described above.
The band intensity was measured in the ImageLab Software (BIO-RAD) and the MLKL values adjusted for loading with GAPDH. The percentage of degradation was calculated by normalizing the compound treated values to the DMSO only control.

Sequence of endogenous MLKL in U937 (Q8NB16 whole entry): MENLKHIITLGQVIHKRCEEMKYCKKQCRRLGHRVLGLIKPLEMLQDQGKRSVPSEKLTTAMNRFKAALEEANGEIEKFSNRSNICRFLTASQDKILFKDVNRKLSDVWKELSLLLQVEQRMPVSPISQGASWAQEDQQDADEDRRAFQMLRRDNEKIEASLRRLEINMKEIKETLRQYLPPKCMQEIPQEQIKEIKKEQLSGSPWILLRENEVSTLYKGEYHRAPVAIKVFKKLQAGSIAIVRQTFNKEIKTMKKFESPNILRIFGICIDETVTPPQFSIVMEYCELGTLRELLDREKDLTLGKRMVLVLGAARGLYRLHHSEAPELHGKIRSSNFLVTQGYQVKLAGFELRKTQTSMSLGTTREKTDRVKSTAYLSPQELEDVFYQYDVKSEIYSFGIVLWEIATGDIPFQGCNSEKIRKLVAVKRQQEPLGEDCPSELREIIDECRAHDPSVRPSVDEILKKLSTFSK
Sequence of MLKL (full length) (Q8NB16 whole entry): as above

For the compound `CCS(=O)(=O)Nc1ccc(-c2n[nH]c(Nc3cnc(OCCCCC(=O)N[C@H](C(=O)N4C[C@H](O)C[C@H]4C(=O)NCc4ccc(-c5scnc5C)cc4)C(C)(C)C)cn3)c2C(N)=O)cc1OCc1ccc(F)cc1` [Compound 1023, 3-{4-ethanesulfonamido-3-[(4-fluorophenyl)methoxy]phenyl}-5-{[5-(4-{[(2S)-1-[(2S,4R)-4-hydroxy-2-({[4-(4-methyl-1,3-thiazol-5-yl)phenyl]methyl}carbamoyl)pyrrolidin-1-yl]-3,3-dimethyl-1-oxobutan-2-yl]carbamoyl}butoxy)pyrazin-2-yl]amino}-1H-pyrazole-4-carboxamide], the dissociation constant (Kd) in experiment [1] is less than 10 nM. Besides, the IC50 in experiment [2] was less than 1000 nM; in experiment [3], more than 10 µM. Further, the 50% degradation concentration (DC50) in experiment [4] is less than 1 µM.
On the same counts, the results for `CCS(=O)(=O)Nc1ccc(-c2n[nH]c(Nc3ccc(OCCCCC(=O)N[C@H](C(=O)N4C[C@H](O)C[C@H]4C(=O)NCc4ccc(-c5scnc5C)cc4)C(C)(C)C)cn3)c2C(N)=O)cc1OCc1ccc(F)cc1` [Compound 1024, 3-{4-ethanesulfonamido-3-[(4-fluorophenyl)methoxy]phenyl}-5-{[5-(4-{[(2S)-1-[(2S,4R)-4-hydroxy-2-({[4-(4-methyl-1,3-thiazol-5-yl)phenyl]methyl}carbamoyl)pyrrolidin-1-yl]-3,3-dimethyl-1-oxobutan-2-yl]carbamoyl}butoxy)pyridin-2-yl]amino}-1H-pyrazole-4-carboxamide] are less than 10 nM, less than 1000 nM, more than 10 µM and less than 1 µM.
In the same order, the values of `CCS(=O)(=O)Nc1ccc(-c2n[nH]c(Nc3ccc(C(=O)OCCCCC(=O)N[C@H](C(=O)N4C[C@H](O)C[C@H]4C(=O)NCc4ccc(-c5scnc5C)cc4)C(C)(C)C)cn3)c2C(N)=O)cc1O[C@@H](C)c1ccc(F)cc1` [Compound 1039, 4-{[(2S)-1-[(2S,4R)-4-hydroxy-2-({[4-(4-methyl-1,3-thiazol-5-yl)phenyl]methyl}carbamoyl)pyrrolidin-1-yl]-3,3-dimethyl-1-oxobutan-2-yl]carbamoyl}butyl 6-[(4-carbamoyl-3-{4-ethanesulfonamido-3-[(1S)-1-(4-fluorophenyl)ethoxy]phenyl}-1H-pyrazol-5-yl)amino]pyridine-3-carboxylate] are 10 to 1000 nM, less than 1000 nM, more than 10 µM and less than 1 µM.
`Cc1ncsc1-c1ccc(CNC(=O)[C@@H]2C[C@@H](O)CN2C(=O)[C@@H](NC(=O)CCCCCCn2ccc(Nc3[nH]nc(-c4ccc(NS(=O)(=O)C(F)F)c(O[C@@H](C)c5ccc(F)cc5)c4)c3C(N)=O)n2)C(C)(C)C)cc1` [Compound 1040, 3-[4-(difluoromethanesulfonamido)-3-[(1S)-1-(4-fluorophenyl)ethoxy]phenyl]-5-{[1-(6-{[(2S)-1-[(2S,4R)-4-hydroxy-2-({[4-(4-methyl-1,3-thiazol-5-yl)phenyl]methyl}carbamoyl)pyrrolidin-1-yl]-3,3-dimethyl-1-oxobutan-2-yl]carbamoyl}hexyl)-1H-pyrazol-3-yl]amino}-1H-pyrazole-4-carboxamide] had a Kd in experiment [1] of less than 10 nM. Also, the IC50 is less than 1000 nM in experiment [2] and more than 10 µM in experiment [3]. Further, the 50% degradation concentration (DC50) in experiment [4] was 1 to 10 µM.
The compound `CCS(=O)(=O)Nc1ccc(-c2n[nH]c(Nc3ccc(C(=O)OCC(=O)N[C@H](C(=O)N4C[C@H](O)C[C@H]4C(=O)NCc4ccc(-c5scnc5C)cc4)C(C)(C)C)cn3)c2C(N)=O)cc1O[C@@H](C)c1ccc(F)cc1` [Compound 1041, {[(2S)-1-[(2S,4R)-4-hydroxy-2-({[4-(4-methyl-1,3-thiazol-5-yl)phenyl]methyl}carbamoyl)pyrrolidin-1-yl]-3,3-dimethyl-1-oxobutan-2-yl]carbamoyl}methyl 6-[(4-carbamoyl-3-{4-ethanesulfonamido-3-[(1S)-1-(4-fluorophenyl)ethoxy]phenyl}-1H-pyrazol-5-yl)amino]pyridine-3-carboxylate] came in with a Kd in experiment [1] of less than 10 nM. For the same compound, the IC50 in experiment [2] was less than 1000 nM; in experiment [3] it was more than 10 µM. Moreover, in experiment [4], the half-maximal degradation concentration (DC50) is less than 1 µM.
In turn, `Cc1ncsc1-c1ccc(CNC(=O)[C@@H]2C[C@@H](O)CN2C(=O)[C@@H](NC(=O)CCCCCCCn2ccc(Nc3[nH]nc(-c4ccc(NS(=O)(=O)C(F)F)c(O[C@@H](C)c5ccc(F)cc5)c4)c3C(N)=O)n2)C(C)(C)C)cc1` [Compound 1042, 3-[4-(difluoromethanesulfonamido)-3-[(1S)-1-(4-fluorophenyl)ethoxy]phenyl]-5-{[1-(7-{[(2S)-1-[(2S,4R)-4-hydroxy-2-({[4-(4-methyl-1,3-thiazol-5-yl)phenyl]methyl}carbamoyl)pyrrolidin-1-yl]-3,3-dimethyl-1-oxobutan-2-yl]carbamoyl}heptyl)-1H-pyrazol-3-yl]amino}-1H-pyrazole-4-carboxamide] had an equilibrium dissociation constant (Kd) in experiment [1] of less than 10 nM. In addition, the half-inhibitory concentration (IC50) in experiment [2] is less than 1000 nM; in experiment [3], 1 to 10 µM. In experiment [4], the half-maximal degradation concentration (DC50) lay within 1 to 10 µM.
Take `CCS(=O)(=O)Nc1ccc(-c2n[nH]c(Nc3ccc(C(=O)OCCCC(=O)N[C@H](C(=O)N4C[C@H](O)C[C@H]4C(=O)NCc4ccc(-c5scnc5C)cc4)C(C)(C)C)cn3)c2C(N)=O)cc1O[C@@H](C)c1ccc(F)cc1` [Compound 1043, 3-{[(2S)-1-[(2S,4R)-4-hydroxy-2-({[4-(4-methyl-1,3-thiazol-5-yl)phenyl]methyl}carbamoyl)pyrrolidin-1-yl]-3,3-dimethyl-1-oxobutan-2-yl]carbamoyl}propyl 6-[(4-carbamoyl-3-{4-ethanesulfonamido-3-[(1S)-1-(4-fluorophenyl)ethoxy]phenyl}-1H-pyrazol-5-yl)amino]pyridine-3-carboxylate]: the dissociation constant (Kd) in experiment [1] was less than 10 nM. Also, the IC50 in experiment [2] is less than 1000 nM; in experiment [3] it was more than 10 µM. In addition, the DC50 in experiment [4] is less than 1 µM.
`Cc1ncsc1-c1ccc(CNC(=O)[C@@H]2C[C@@H](O)CN2C(=O)[C@@H](NC(=O)c2ccc(Cn3ccc(Nc4[nH]nc(-c5ccc(NS(=O)(=O)C(F)F)c(O[C@@H](C)c6ccc(F)cc6)c5)c4C(N)=O)n3)cc2)C(C)(C)C)cc1` [Compound 1045, 3-[4-(difluoromethanesulfonamido)-3-[(1S)-1-(4-fluorophenyl)ethoxy]phenyl]-5-({1-[(4-{[(2S)-1-[(2S,4R)-4-hydroxy-2-({[4-(4-methyl-1,3-thiazol-5-yl)phenyl]methyl}carbamoyl)pyrrolidin-1-yl]-3,3-dimethyl-1-oxobutan-2-yl]carbamoyl}phenyl)methyl]-1H-pyrazol-3-yl}amino)-1H-pyrazole-4-carboxamide] had a Kd in experiment [1] of less than 10 nM. The IC50 in experiment [2] was less than 1000 nM; in experiment [3], more than 10 µM. Also, the half-maximal degradation concentration (DC50) in experiment [4] was less than 1 µM.
On the same counts, the results for `Cc1ncsc1-c1ccc(CNC(=O)[C@@H]2C[C@@H](O)CN2C(=O)[C@@H](NC(=O)CCCCCOc2ccc(Nc3[nH]nc(-c4ccc(NS(=O)(=O)C(F)F)c(O[C@@H](C)c5ccc(F)cc5)c4)c3C(N)=O)nc2)C(C)(C)C)cc1` [Compound 1048, 3-[4-(difluoromethanesulfonamido)-3-[(1S)-1-(4-fluorophenyl)ethoxy]phenyl]-5-({5-[(5-{[(2S)-1-[(2S,4R)-4-hydroxy-2-({[4-(4-methyl-1,3-thiazol-5-yl)phenyl]methyl}carbamoyl)pyrrolidin-1-yl]-3,3-dimethyl-1-oxobutan-2-yl]carbamoyl}pentyl)oxy]pyridin-2-yl}amino)-1H-pyrazole-4-carboxamide] are less than 10 nM, less than 1000 nM, more than 10 µM and less than 1 µM.
